How the values were obtained:
[1] = log P determination by LC-MS in the acidic range (HCOOH); format: physicochemical; settings: LC-MS column with aqueous formic acid/acetonitrile gradient, pH 2.7, 0.1% aqueous formic acid and acetonitrile
Protocol: The LC-MS determination in the acidic range is carried out at pH 2.7 using 0.1% aqueous formic acid and acetonitrile (contains 0.1% formic acid) as mobile phases; linear gradient from 10% acetonitrile to 95% acetonitrile.
Calibration is carried out using unbranched alkan-2-ones (with 3 to 16 carbon atoms) with known log P values (determination of the log P values by the retention times using linear interpolation between two successive alkanones).

[2] = tested on: green peach aphid (Myzus persicae); assay: Myzus test (MVZUPE spray treatment); format: in vivo; settings: after 6 days, Chinese cabbage leaf discs
Protocol: (§1) To produce a suitable preparation of active compound, one part by weight of active compound is mixed with the stated amounts of solvents and emulsifier, and the concentrate is diluted with emulsifier-containing water to the desired concentration.
Discs of Chinese cabbage leaves (Brassica pekinensis) which are infested by all stages of the green peach aphid (Myzus persicae) are sprayed with an active compound preparation of the desired concentration.
(§2) After 6 days, the effect in percent is determined. 100% means that all aphids have been killed; 0% means that none of the aphids have been killed.

[3] = tested on: larvae of the mustard beetle (Phaedon cochleariae); assay: Phaedon test (PHAECO spray treatment); format: in vivo; settings: application rate 500 g/ha, after 7 days, Chinese cabbage leaf discs
Protocol: [table] To produce a suitable preparation of active compound, one part by weight of active compound is mixed with the stated amounts of solvents and emulsifier, and the concentrate is diluted with emulsifier-containing water to the desired concentration. Discs of Chinese cabbage leaves (Brassica pekinensis) are sprayed with an active compound preparation of the desired concentration and, after drying, populated with larvae of the mustard beetle (Phaedon cochleariae).

[4] = tested on: caterpillars of the armyworm (Spodoptera frugiperda); assay: Spodoptera frugiperda test (SPODFR spray treatment); format: in vivo; settings: after 6 days, maize leaf discs
Protocol: as §1
Discs of maize leaves (Zea mays) are sprayed with an active compound preparation of the desired concentration and, after drying, populated with caterpillars of the armyworm (Spodoptera frugiperda).
as §2

CON1CCC2(CC1)OC(=O)C(c1c(C)cc(C)cc1C)=C2O [I-a-1]
chromatographic logP [1]: 2.15

CCc1cc(C)cc(C)c1C1=C(O)C2(CCN(OC)CC2)OC1=O [I-a-3]
activity (aphids killed) ([2]; application rate 500 g/ha): 100%

CON1CCC2(CC1)OC(=O)C(c1cc(-c3ccc(Cl)cc3)ccc1C)=C2O [I-a-4]
activity (beetle larvae killed) [3]: 100%
activity (aphids killed) ([2]; application rate 500 g/ha): 100%

CON1CCC2(CC1)OC(=O)C(c1c(C)ccc(-c3ccc(Cl)cc3)c1C)=C2O [I-a-5]
activity (killed) ([4]; application rate 500 g/ha): ≥ 80%
activity (aphids killed) ([2]; application rate 100 g/ha): 100%

CCc1cc(-c2ccc(Cl)cc2)cc(C)c1C1=C(O)C2(CCN(OC)CC2)OC1=O [I-a-6]
activity (beetle larvae killed) [3]: 100%

CCON1CCC2(CC1)OC(=O)C(c1c(C)cc(C)cc1C)=C2O [I-a-7]
activity (aphids killed) ([2]; application rate 500 g/ha): 100%

CON1CCC2(CC1)OC(=O)C(c1c(C)ccc(-c3ccc(F)cc3)c1C)=C2O [I-a-9]
activity (aphids killed) ([2]; application rate 500 g/ha): 100%

CCc1cc(C)cc(CC)c1C1=C(O)C2(CCN(OC)CC2)OC1=O [I-a-10]
activity (aphids killed) ([2]; application rate 500 g/ha): 100%

CCON1CCC2(CC1)OC(=O)C(c1c(CC)cc(C)cc1CC)=C2O [I-a-11]
activity (aphids killed) ([2]; application rate 500 g/ha): 100%

CCON1CCC2(CC1)OC(=O)C(c1c(C)ccc(-c3ccc(Cl)cc3)c1C)=C2O [I-a-12]
activity (killed) ([4]; application rate 100 g/ha): ≥ 100%
activity (aphids killed) ([2]; application rate 500 g/ha): 100%

CCON1CCC2(CC1)OC(=O)C(c1cc(-c3ccc(Cl)cc3)ccc1C)=C2O [I-a-13]
activity (beetle larvae killed) [3]: 100%
activity (aphids killed) ([2]; application rate 500 g/ha): 100%

CCOC(=O)C1(OC(=O)Cc2c(C)cc(C)cc2C)CCN(OC)CC1 [II-1]
chromatographic logP [1]: 4.28

CCOC(=O)C1(O)CCN(OC)CC1 [XIV-1]
chromatographic logP [1]: 0.94

CCOC(=O)C1(O)CCN(OCC)CC1 [XIV-2]
chromatographic logP [1]: 1.16
